{"source": "patent US20060177821A1", "about": "“Association of the h2 haplotype of the p2y12 receptor with an increased risk for thrombosis and peripheral arterial disease” (priority 2002, published 2006)", "key": {"platelets": {"tested_on": "platelets", "assay": "ADP-induced platelet aggregation in platelet-rich plasma (photometric aggregometry)", "format": "cell-based, human", "settings": "2 μM ADP; for maximal aggregation: mean±SEM; for maximal aggregation in response to ADP (median): citrated PRP, average of visits 1 and 2", "description": "Venous blood was collected between 8:00 and 10:00 am, after an overnight fast, in tubes containing either 0.105 M sodium citrate (1 vol/9 vol) (BD Vacutainer®, Becton Dickinson, Le Pont de Claix, France) or 50 μg/mL lepirudine (Refludan®, Hoechst, Paris, France) using a 19-gauge needle and no tourniquet. The first 2 ml of blood was discarded. Platelet-rich plasma (PRP) was obtained by centrifugation at 1000 rpm for 10 min at room temperature. Autologous platelet-poor plasma, obtained by further centrifugation at 4000 rpm for 15 min, was used to adjust the platelet count of PRP to 250×10^9/L.\nAggregation studies were performed within 2 hours after blood collection. Aggregation was measured at 37° C. by using a photometric method on a four-channel aggregometer (Regulest® Amneville, France). A 280-μL aliquot of PRP was incubated for 3 min at 37° C. and then was stirred at 1100 rpm for 2 min before adding 20 μL of saline or ADP (Sigma-Aldrich, St Quentin Fallavier, France) at 1, 2 or 5 μM (final concentration). The platelet aggregation response was recorded for 5 min."}, "[1]": {"tested_on": "iloprost-stimulated cAMP accumulation in platelets (P2Y12 regulation of adenylate cyclase)", "assay": "Inhibition by ADP of iloprost-stimulated cAMP accumulation in platelets (EIA)", "format": "cell-based", "settings": "Homo sapiens, Platelet, citrated PRP, read-out: inhibition of iloprost-stimulated cAMP formation; for inhibition at 1 µM: 1 μM ADP; for inhibition at 2 µM: 2 μM ADP; for inhibition at 5 µM: 5 μM ADP", "description": "Platelet cAMP content was measured in 20 selected subjects by incubating 270 μL of PRP with 10 μL of a solution of the stable prostacyclin analog iloprost (20 μg/L, final concentration) (Ilomédine®, Schering-Plough) for 1 min, with stirring, then adding 20 μL of saline or ADP (1, 2 or 5 μM). The reaction was stopped 3 min later by adding 20 μL of 12% trichloroacetic acid. CAMP was then extracted and measured with an enzyme immunoassay (EIA) (Amersham, Pharmacia Biotech, Orsay, France) according to the manufacturer's instructions, without knowledge of the subject's P2Y12 genotype."}, "[2]": {"settings": "platelets from carriers of the H2 haplotype"}, "[3]": {"settings": "platelets from non carriers of the H2 haplotype"}}, "note": "Like-named read-outs stand apart in the source and are kept apart here.", "data": [{"smiles": "Nc1ncnc2c1ncn2[C@@H]1O[C@H](COP(=O)(O)OP(=O)(O)O)[C@@H](O)[C@H]1O", "note": "[ADP, adenosine 5′-diphosphate]", "values": [{"measurement": "maximal aggregation", "setting": "platelets; citrate-anticoagulated PRP (low Ca++), 10 carriers of the H2 allele", "value": "71.5%±5.2%"}, {"measurement": "maximal aggregation", "setting": "platelets; citrate-anticoagulated PRP (low Ca++), 10 non carriers of the H2 allele", "value": "50.7%±7.2%"}, {"measurement": "maximal aggregation in response to ADP (median)", "setting": "platelets; subjects carrying no H2 alleles (H1/H1, n=74)", "value": 34.7, "unit": "%"}, {"measurement": "maximal aggregation in response to ADP (median)", "setting": "platelets; subjects carrying one H2 allele (H1/H2, n=21)", "value": 67.9, "unit": "%"}, {"measurement": "maximal aggregation in response to ADP (median)", "setting": "platelets; subjects carrying two H2 alleles (H2/H2, n=3)", "value": 82.4, "unit": "%"}, {"measurement": "maximal aggregation", "setting": "platelets; hirudin-anticoagulated PRP (physiological Ca++), 10 carriers of the H2 allele", "value": "53.8%±3.9%"}, {"measurement": "maximal aggregation", "setting": "platelets; hirudin-anticoagulated PRP (physiological Ca++), 10 non carriers of the H2 allele", "value": "42.8%±3.4%"}, {"measurement": "inhibition at 1 µM", "setting": "[1]; [2]", "value": 31, "unit": "%"}, {"measurement": "inhibition at 1 µM", "setting": "[1]; [3]", "value": 13, "unit": "%"}, {"measurement": "inhibition at 2 µM", "setting": "[1]; [2]", "value": 39, "unit": "%"}, {"measurement": "inhibition at 2 µM", "setting": "[1]; [3]", "value": 31, "unit": "%"}, {"measurement": "inhibition at 5 µM", "setting": "[1]; [2]", "value": 50, "unit": "%"}, {"measurement": "inhibition at 5 µM", "setting": "[1]; [3]", "value": 37, "unit": "%"}]}]}
